Measured values reported in US20230265103A1 (TME Therapeutics LLC, priority 2021, published 2023).

target: T1, PIKFYVE (Homo sapiens, UniProt Q9Y2I7); experiment: KINOMEscan Kinase Assay (Eurofins), PIKFYVE inhibitory activity; type: binding; conditions: @ 1 nM
T1 construct: purchased Eurofins (KINOMEscan); host or cells: E. coli BL21-derived (T7 phage display) or HEK-293
T1 sequence (Q9Y2I7 whole entry): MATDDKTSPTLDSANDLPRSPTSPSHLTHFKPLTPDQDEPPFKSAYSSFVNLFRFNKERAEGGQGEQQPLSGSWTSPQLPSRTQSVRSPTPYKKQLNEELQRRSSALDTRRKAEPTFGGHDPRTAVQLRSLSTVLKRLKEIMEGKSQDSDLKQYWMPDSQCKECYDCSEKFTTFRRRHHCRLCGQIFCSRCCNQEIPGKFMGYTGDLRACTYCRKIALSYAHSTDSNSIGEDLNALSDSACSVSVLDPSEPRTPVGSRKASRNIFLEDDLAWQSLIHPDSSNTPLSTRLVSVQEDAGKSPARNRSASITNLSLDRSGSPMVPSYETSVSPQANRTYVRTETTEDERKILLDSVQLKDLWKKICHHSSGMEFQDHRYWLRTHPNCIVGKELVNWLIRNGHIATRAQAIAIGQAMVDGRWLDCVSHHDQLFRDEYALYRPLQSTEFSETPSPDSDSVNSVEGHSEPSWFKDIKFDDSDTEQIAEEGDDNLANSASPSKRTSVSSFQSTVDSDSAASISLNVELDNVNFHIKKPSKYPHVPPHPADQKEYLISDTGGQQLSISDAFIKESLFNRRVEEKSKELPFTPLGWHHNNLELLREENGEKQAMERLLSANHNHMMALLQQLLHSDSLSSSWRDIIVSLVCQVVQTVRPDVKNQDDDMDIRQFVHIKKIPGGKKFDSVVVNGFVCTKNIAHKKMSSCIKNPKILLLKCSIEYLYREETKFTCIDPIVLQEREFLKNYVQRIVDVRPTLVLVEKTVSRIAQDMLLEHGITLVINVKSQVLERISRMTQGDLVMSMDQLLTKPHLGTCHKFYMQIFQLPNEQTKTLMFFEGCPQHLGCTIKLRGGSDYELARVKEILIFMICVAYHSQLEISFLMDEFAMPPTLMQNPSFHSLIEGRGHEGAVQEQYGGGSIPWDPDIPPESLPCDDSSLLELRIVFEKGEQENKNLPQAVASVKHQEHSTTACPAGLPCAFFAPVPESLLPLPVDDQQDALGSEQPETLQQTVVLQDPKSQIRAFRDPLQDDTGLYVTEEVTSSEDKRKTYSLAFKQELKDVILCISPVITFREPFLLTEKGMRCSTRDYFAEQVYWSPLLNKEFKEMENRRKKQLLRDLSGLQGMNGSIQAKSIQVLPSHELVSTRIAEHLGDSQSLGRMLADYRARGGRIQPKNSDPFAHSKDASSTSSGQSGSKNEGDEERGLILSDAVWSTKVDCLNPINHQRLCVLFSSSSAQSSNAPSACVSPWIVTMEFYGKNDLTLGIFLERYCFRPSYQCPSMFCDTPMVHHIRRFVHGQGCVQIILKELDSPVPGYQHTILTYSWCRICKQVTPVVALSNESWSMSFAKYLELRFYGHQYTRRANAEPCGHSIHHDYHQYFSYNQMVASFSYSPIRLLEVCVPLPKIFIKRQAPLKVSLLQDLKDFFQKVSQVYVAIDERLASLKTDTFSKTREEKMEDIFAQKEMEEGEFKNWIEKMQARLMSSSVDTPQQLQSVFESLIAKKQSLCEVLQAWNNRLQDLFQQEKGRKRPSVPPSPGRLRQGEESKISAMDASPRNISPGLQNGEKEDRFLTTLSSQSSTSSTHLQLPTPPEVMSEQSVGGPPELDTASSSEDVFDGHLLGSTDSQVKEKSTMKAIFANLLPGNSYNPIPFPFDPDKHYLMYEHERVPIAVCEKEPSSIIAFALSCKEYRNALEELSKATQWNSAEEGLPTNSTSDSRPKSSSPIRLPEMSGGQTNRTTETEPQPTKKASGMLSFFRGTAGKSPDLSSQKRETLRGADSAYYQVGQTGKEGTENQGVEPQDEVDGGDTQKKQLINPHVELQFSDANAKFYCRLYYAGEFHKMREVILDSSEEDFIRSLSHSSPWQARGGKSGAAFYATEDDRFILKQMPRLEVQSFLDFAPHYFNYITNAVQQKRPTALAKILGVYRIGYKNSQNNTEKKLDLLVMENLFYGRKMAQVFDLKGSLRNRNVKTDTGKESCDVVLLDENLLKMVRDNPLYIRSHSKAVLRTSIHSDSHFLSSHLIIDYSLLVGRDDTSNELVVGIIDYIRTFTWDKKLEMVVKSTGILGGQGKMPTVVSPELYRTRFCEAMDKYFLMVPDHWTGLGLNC

Row | SMILES | inhibition at 0.001 µM [%]
1 | Cc1cccc(-c2ccn(-c3nc(N4CCOCC4)c4nc(CN5CCN(C)CC5)[nH]c4n3)n2)c1 [Ex. 35, 4-(8-((4-methylpiperazin-1-yl)methyl)-2-(3-(m-tolyl)-1H-pyrazol-1-yl)-9H-purin-6-yl)morpholine] | 13
2 | Cc1cccc(-c2ccn(-c3nc(N4CCOCC4)c4sc(CO)c(C)c4n3)n2)c1 [Ex. 53, (7-methyl-4-morpholino-2-(3-(m-tolyl)-1H-pyrazol-1-yl)thieno[3,2-d]pyrimidin-6-yl)methanol] | 17

same assay, conditions: @ 3 nM

Row | SMILES | inhibition at 0.003 µM [%]
3 | Cc1cccc(-c2ccn(-c3nc(N4CCOCC4)c4nc(CN5CCOCC5)n(C)c4n3)n2)c1 [Ex. 56, 4-((9-methyl-6-morpholino-2-(3-(m-tolyl)-1H-pyrazol-1-yl)-9H-purin-8-yl)methyl)morpholine] | 94

same assay, conditions: @ 1000 nM

Row | SMILES | inhibition at 1 µM [%]
4 | Cc1cccc(-c2ccn(-c3cc(N4CCOCC4)c4nc(CN5CCC(N6CCOCC6)CC5)[nH]c4n3)n2)c1 [Ex. 42, 4-(1-((7-morpholino-5-(3-(m-tolyl)-1H-pyrazol-1-yl)-3H-imidazo[4,5-b]pyridin-2-yl)methyl)piperidin-4-yl)morpholine] | 98

same assay, conditions: KINOMEscan

Row | SMILES | IC50 [nM]
5 | Cc1cccc(-c2ccn(-c3nc(N4CCOCC4)c4nc(CN5CCN(C)CC5)sc4n3)n2)c1 [Ex. 34, 4-(2-((4-methylpiperazin-1-yl)methyl)-5-(3-(m-tolyl)-1H-pyrazol-1-yl)thiazolo[5,4-d]pyrimidin-7-yl)morpholine] | 1 to 10
6 | Cc1cccc(-c2ccn(-c3nc(N4CCOCC4)c4nc(CN5CC(N6CCCC6)C5)[nH]c4n3)n2)c1 [Ex. 36, 4-(8-((3-(pyrrolidin-1-yl)azetidin-1-yl)methyl)-2-(3-(m-tolyl)-1H-pyrazol-1-yl)-9H-purin-6-yl)morpholine] | < 1
7 | Cc1cccc(-c2ccn(-c3nc(N4CCOCC4)c4sc(-c5cnn(C)c5)cc4n3)n2)c1 [Ex. 37, 4-(6-(1-methyl-1H-pyrazol-4-yl)-2-(3-(m-tolyl)-1H-pyrazol-1-yl)thieno[3,2-d]pyrimidin-4-yl)morpholine] | < 1
8 | Cc1cccc(-c2ccn(-c3cc(N4CCOCC4)c4nc(CN5CCOCC5)[nH]c4n3)n2)c1 [Ex. 38, 4-((7-morpholino-5-(3-(m-tolyl)-1H-pyrazol-1-yl)-3H-imidazo[4,5-b]pyridin-2-yl)methyl)morpholine] | < 1
9 | Cc1cccc(-c2ccn(-c3cc(N4CCOCC4)c4nc(CN5CCN(C)CC5)[nH]c4n3)n2)c1 [Ex. 39, 4-(2-((4-methylpiperazin-1-yl)methyl)-5-(3-(m-tolyl)-1H-pyrazol-1-yl)-3H-imidazo[4,5-b]pyridin-7-yl)morpholine] | < 1
10 | Cc1cccc(-c2ccn(-c3cc(N4CCOCC4)c4nc(CN5CC[C@@H](N(C)C)C5)[nH]c4n3)n2)c1 [Ex. 41, (R)—N,N-dimethyl-1-((7-morpholino-5-(3-(m-tolyl)-1H-pyrazol-1-yl)-3H-imidazo[4,5-b]pyridin-2-yl)methyl)pyrrolidin-3-amine] | < 1
11 | Cc1cccc(-c2ccn(-c3nc(N4CCOCC4)c4nc(CN5CCC(N6CCC6)C(F)C5)[nH]c4n3)n2)c1 (stereo not drawn) [Ex. 43, 4-(8-((4-(azetidin-1-yl)-3-fluoropiperidin-1-yl)methyl-2-(3-m-tolyl)-1H-pyrazol-1-yl)-9H-purin-6-yl)morpholine] | < 1
12 | Cc1cccc(-c2ccn(-c3nc(N4CCOCC4)c4nc(-c5cnn(C)c5)[nH]c4n3)n2)c1 [Ex. 44, 4-(8-(1-methyl-1H-pyrazol-4-yl)-2-(3-(m-tolyl)-1H-pyrazol-1-yl)-9H-purin-6-yl)morpholine] | < 1
13 | Cc1cccc(-c2ccn(-c3cc(N4CCOCC4)c4nc(CN5CC[C@H](N(C)C)C5)[nH]c4n3)n2)c1 [Ex. 46, (S)—N,N-dimethyl-1-((7-morpholino-5-(3-(m-tolyl)-1H-pyrazol-1-yl)-3H-imidazo[4,5-b]pyridin-2-yl)methyl)pyrrolidin-3-amine] | < 1
14 | Cc1cccc(-c2ccn(-c3nc(N4CCOCC4)c4nc(CN5CCC(N6CCC6)C(F)C5)sc4n3)n2)c1 (stereo not drawn) [Ex. 47, 4-(2-((4-(azetidin-1-yl)-3-fluoropiperidin-1-yl)methyl)-5-(3-(m-tolyl)-1H-pyrazol-1-yl)thiazolo[5,4-d]pyrimidin-7-yl)morpholine] | < 1
15 | Cc1cccc(-c2ccn(-c3cc(N4CCOCC4)c4nc(CN5CC(N(C)C)C5)[nH]c4n3)n2)c1 [Ex. 48, N,N-dimethyl-1-((7-morpholino-5-(3-(m-tolyl)-1H-pyrazol-1-yl)-3H-imidazo[4,5-b]pyridin-2-yl)methyl)azetidin-3-amine] | 1 to 10
16 | Cc1cccc(-c2ccn(-c3nc(N4CCOCC4)c4nc(-c5cnn(C)c5)sc4n3)n2)c1 [Ex. 49, 4-(2-(1-methyl-1H-pyrazol-4-yl)-5-(3-(m-tolyl)-1H-pyrazol-1-yl)thiazolo[5,4-d]pyrimidin-7-yl)morpholine] | < 1
17 | Cc1cccc(-c2ccn(-c3nc(N4CCOCC4)c4sc(CN5CCC6(OCCO6)C(F)C5)cc4n3)n2)c1 (stereo not drawn) [Ex. 50, 6-fluoro-8-((4-morpholino-2-(3-(m-tolyl)-1H-pyrazol-1-yl)thieno[3,2-d]pyrimidin-6-yl)methyl)-1,4-dioxa-8-azaspiro[4.5]decane] | 1 to 10
18 | Cc1cccc(-c2ccn(-c3nc(N4CCOCC4)c4sc(CN5CCC(N(C)C)C(F)C5)cc4n3)n2)c1 (stereo not drawn) [Ex. 51, 3-fluoro-N,N-dimethyl-1-((4-morpholino-2-(3-(m-tolyl)-1H-pyrazol-1-yl)thieno[3,2-d]pyrimidin-6-yl)methyl)piperidin-4-amine] | < 1
19 | Cc1cccc(-c2ccn(-c3cc(N4CCOCC4)c4nc(CN5CCC(N(C)C)C(F)C5)[nH]c4n3)n2)c1 (stereo not drawn) [Ex. 52, 3-fluoro-N,N-dimethyl-1-((7-morpholino-5-(3-(m-tolyl)-1H-pyrazol-1-yl)-3H-imidazo[4,5-b]pyridin-2-yl)methyl)piperidin-4-amine] | < 1
20 | Cc1cccc(-c2ccn(-c3nc(N4CCOCC4)c4sc(CN5CCN(S(C)(=O)=O)CC5)c(C)c4n3)n2)c1 [Ex. 54, 4-(7-methyl-6-((4-(methylsulfonyl)piperazin-1-yl)methyl)-2-(3-(m-tolyl)-1H-pyrazol-1-yl)thieno[3,2-d]pyrimidin-4-yl)morpholine] | < 1
21 | Cc1cccc(-c2ccn(-c3nc(N4CCOCC4)c4sc(CN5CCC(N(C)C)C(F)C5)c(C)c4n3)n2)c1 (stereo not drawn) [Ex. 55, 3-fluoro-N,N-dimethyl-1-((7-methyl-4-morpholino-2-(3-(m-tolyl)-1H-pyrazol-1-yl)thieno[3,2-d]pyrimidin-6-yl)methyl)piperidin-4-amine] | < 1
22 | Cc1cccc(-c2ccn(-c3nc(N4CCOCC4)c4nc(CN5CCN(S(C)(=O)=O)CC5)n(C)c4n3)n2)c1 [Ex. 57, 4-(9-methyl-8-((4-(methylsulfonyl)piperazin-1-yl)methyl)-2-(3-(m-tolyl)-1H-pyrazol-1-yl)-9H-purin-6-yl)morpholine] | 1 to 10
23 | Cc1cccc(-c2ccn(-c3nc(N4CCOCC4)c4sc(CN5CCC(N6CCC6)C(F)C5)c(C)c4n3)n2)c1 (stereo not drawn) [Ex. 58, 4-(6-((4-(azetidin-1-yl)-3-fluoropiperidin-1-yl)methyl)-7-methyl-2-(3-(m-tolyl)-1H-pyrazol-1-yl)thieno[3,2-d]pyrimidin-4-yl)morpholine] | < 1
24 | Cc1cccc(-c2ccn(-c3nc(N4CCOCC4)c4sc(C(=O)N5CCN(C)CC5)c(C)c4n3)n2)c1 [Ex. 59, (7-methyl-4-morpholino-2-(3-(m-tolyl)-1H-pyrazol-1-yl)thieno[3,2-d]pyrimidin-6-yl)(4-methylpiperazin-1-yl)methanone] | 1 to 10
25 | Cc1cccc(-c2ccn(-c3nc(N4CCOCC4)c4sc(C(=O)N5CC[C@@H](N(C)C)C5)c(C)c4n3)n2)c1 [Ex. 60, (R)-(3-(dimethylamino)pyrrolidin-1-yl)(7-methyl-4-morpholino-2-(3-(m-tolyl)-1H-pyrazol-1-yl)thieno[3,2-d]pyrimidin-6-yl)methanone] | 1 to 10
26 | Cc1cccc(-c2ccn(-c3nc(N4CCOCC4)c4sc(C(=O)N5CCC(C(C)(C)O)CC5)c(C)c4n3)n2)c1 [Ex. 61, (4-(2-hydroxypropan-2-yl)piperidin-1-yl)(7-methyl-4-morpholino-2-(3-(m-tolyl)-1H-pyrazol-1-yl)thieno[3,2-d]pyrimidin-6-yl)methanone] | < 1
27 | Cc1cccc(-c2ccn(-c3nc(N4CCOCC4)c4nc(CN5CCC(C(C)(C)O)CC5)n(C)c4n3)n2)c1 [Ex. 62, 2-(1-((9-methyl-6-morpholino-2-(3-(m-tolyl)-1H-pyrazol-1-yl)-9H-purin-8-yl)methyl)piperidin-4-yl)propan-2-ol] | 1 to 10
28 | Cc1cccc(-c2ccn(-c3nc(N4CCOCC4)c4sc(CN5CC(C6CCOCC6)C5)c(C)c4n3)n2)c1 [Ex. 63, 4-(7-methyl-6-((3-(tetrahydro-2H-pyran-4-yl)azetidin-1-yl)methyl)-2-(3-(m-tolyl)-1H-pyrazol-1-yl)thieno[3,2-d]pyrimidin-4-yl)morpholine] | 1 to 10
29 | COC(C)(C)c1sc2c(N3CCOCC3)nc(-n3ccc(-c4cccc(C)c4)n3)nc2c1C [Ex. 64, 4-(6-(2-methoxypropan-2-yl)-7-methyl-2-(3-(m-tolyl)-1H-pyrazol-1-yl)thieno[3,2-d]pyrimidin-4-yl)morpholine] | 1 to 10
30 | COC1(c2sc3c(N4CCOCC4)nc(-n4ccc(-c5cccc(C)c5)n4)nc3c2C)COC1 [Ex. 65, 4-(6-(3-methoxyoxetan-3-yl)-7-methyl-2-(3-(m-tolyl)-1H-pyrazol-1-yl)thieno[3,2-d]pyrimidin-4-yl)morpholine] | 1 to 10
31 | Cc1cccc(-c2ccn(-c3cc(N4CCOCC4)c4sc(CN5CCOCC5)cc4n3)n2)c1 [Ex. 66, 4-((7-morpholino-5-(3-(m-tolyl)-1H-pyrazol-1-yl)thieno[3,2-b]pyridin-2-yl)methyl)morpholine] | < 1
32 | Cc1cccc(-c2ccn(-c3cc(N4CCOCC4)c4sc(CN5CCN(C)CC5)cc4n3)n2)c1 [Ex. 67] | < 1
33 | Cc1cccc(-c2ccn(-c3cc(N4CCOCC4)c4sc(CN5CCN(S(C)(=O)=O)CC5)cc4n3)n2)c1 [Ex. 68, 4-(2-((4-(methylsulfonyl)piperazin-1-yl)methyl)-5-(3-(m-tolyl)-1H-pyrazol-1-yl)thieno[3,2-b]pyridin-7-yl)morpholine] | < 1
